Experimental data as given in article PMC12655682, “Screening-Identified Oxazole-4-Carboxamide KB-2777 Exhibits In Vitro Anti-Coronavirus Activity” (Pharmaceutics, 2025).
“Also recorded” adds a separate entry of the source.

Assays:
HCoV-NL63 = assay: Time-of-addition, spike (S) protein immunofluorescence assay, HCoV-NL63/LLC-MK2; format: cell-based, Human coronavirus NL63
Description: At 48 h post-infection, cells were fixed in 4% paraformaldehyde for 15 min, permeabilized with 0.1% Triton X-100, and blocked with 5% BSA. Samples were incubated with a virus-specific rabbit anti-S protein primary antibody, followed by a goat anti-rabbit IgG H&L (FITC) secondary antibody (Supplementary Table S1) and Hoechst nuclear counterstain. Images were acquired on an epifluorescence microscope. Using Fiji, binary thresholding and particle analysis (or Cell Counter) were applied to count the total number of cells and the number of S-positive cells per field, and the infection rate per well was calculated as (S-positive cells/total cells × 100%). At least eight randomly selected fields per well were analyzed.
TOA experiments were performed in HCoV-NL63–infected LLC-MK2 cells using four regimens: • Full: compound present from −24 h to 48 h relative to infection. • Pre-treatment: −24 h to −1 h, wash at −1 h, then infection in drug-free medium. • Co-treatment: −1 h to 0 h during adsorption only, wash at 0 h. • Post-treatment: 0 h to 48 h after adsorption.
Unless otherwise specified, infections were carried out at 100 TCID50 per well with 1 h adsorption at 37 °C, and compounds were used at 20 µM. Primary readout was S protein IFA at 48 h; EZ-Cytox and TCID50 at 48 h for the same regimens are provided in Supplementary Data (Figures S14 and S15).

[1] = system: mock-infected cells (LLC-MK2, Vero E6); assay: EZ-Cytox WST cell viability in mock-infected cells under the same dosing as RT-qPCR; format: cell-based; details: tested concentration range (≤25 µM)
Description: Cells were seeded at 2 × 10^4 cells per well in 96-well plates and, after overnight attachment, exposed to test compounds for 72 h in maintenance medium. The final DMSO concentration was ≤0.1% (v/v) for all conditions, including vehicle controls. Cell viability was quantified using EZ-Cytox WST reagent (DoGenBio, Seoul, Republic of Korea) according to the manufacturer’s instructions; absorbance was read at 450 nm on a SpectraMax i3x microplate reader (Molecular Devices, San Jose, CA, USA). Viability for each well was normalized to the mean of vehicle-treated (mock) controls on the same plate and expressed as percent viability. Each condition included technical replicates (n = 3) per experiment. Concentration–response data from ≥3 independent experiments were fit to a four-parameter logistic (4PL) model in GraphPad Prism 10.1.2 (GraphPad Software, San Diego, CA, USA) (log10-transformed concentrations; bottom and top unconstrained).
We advanced KB-2777, the series member with the highest selectivity index (SI), to evaluate antiviral activity against α-coronaviruses (HCoV-NL63, PEDV) and a β-coronavirus (HCoV-OC43) by RT-qPCR. […] Representative cytopathic effect (CPE) micrographs (KB-2777 20 µM vs. virus-only) for HCoV-NL63, HCoV-OC43, and PEDV are provided in the Supplementary Information (Figure S16).

PEDV = assay: Extracellular viral RNA by RT-qPCR of supernatants, PEDV/Vero E6; format: cell-based; details: Porcine epidemic diarrhea virus, Vero C1008; PEDV/Vero E6, 72 h post-infection, n = 3
Description: At 72 h post-infection, 100–200 μL of culture supernatant was collected. Viral RNA was extracted using the QIAamp Viral RNA Mini Kit (Qiagen, Hilden, Germany)according to the manufacturer’s instructions and quantified by one-step RT-qPCR on a real-time thermocycler.
EC50 values were determined from concentration–response curves generated by 2-fold serial dilutions, with at least four concentration points per curve. Each measurement was performed in triplicate technical replicates. Unless otherwise indicated, data are presented as mean ± SEM from three independent biological experiments (n = 3).
For absolute quantification, synthetic DNA (oligonucleotide) standards corresponding to the NL63, OC43, and PEDV amplicons were used. Ten-fold serial dilutions were prepared to generate standard curves. Ct values were interpolated against the curves to obtain gene copies per reaction and converted to genome copies per mL by accounting for extraction and elution volumes and the qPCR input volume.

HCoV-OC43 = assay: Time-of-addition, CPE reduction in MRC-5 cells, HCoV-OC43; format: cell-based, Human coronavirus OC43; details: HCoV-OC43, MRC-5 cells, 48 h
Description: For antiviral activity, cells in 96-well plates were infected and treated with test compounds as indicated and incubated for 48–72 h. Cell viability was quantified by WST (EZ-Cytox) at 450 nm on the same reader. Cytoprotective effect was calculated by normalizing to infected DMSO controls and converting to percent protection: % Protection = ((V_drug + virus − V_virus-only)/(V_mock − V_virus-only)) × 100.
For HCoV-OC43, TOA was assessed by CPE reduction in MRC-5 cells and by TCID50 on Vero E6 (no IFA collected).
Figure S14. Time-of-addition (TOA) analysis of KB-2777 against HCoV-NL63 (48 h). (a) CPE-reduction assay. KB-2777 was applied at 20 µM (blue) or 5 µM (red) under the indicated TOA conditions (Full, Pre, Co, Post, DMSO).
Cell protection (%) was calculated relative to the DMSO control. Bars show mean ± SD (n = 3). […] (b) Infectious progeny released under the same TOA conditions, quantified as log10(TCID₅₀/mL) from culture supernatants (see Methods). […]
Figure S15. […] Cell protection (%) was calculated relative to the DMSO control. […]
Statistics: one-way ANOVA with Dunnett’s multiple comparisons vs DMSO; *P<0.05, **P<0.01, ***P<0.001, ****P<0.0001. (b) Infectious progeny released under the same TOA conditions, quantified as log₁₀(TCID₅₀/mL) from culture supernatants by endpoint dilution on Vero E6 indicator cells (Spearman–Kärber method; see Methods). […]

COc1cccc(-c2oc(-c3ccc(C(F)(F)F)cc3)nc2C(=O)NCC2CC2)c1 [KB-2777, N-(cyclopropylmethyl)-5-(3-methoxyphenyl)-2-(4-(trifluoromethyl)phenyl)Oxazole-4-Carboxamide]
inhibition by S protein IFA, post-treatment (HCoV-NL63; HCoV-NL63/LLC-MK2, 20 µM, 0 h to 48 h, readout 48 h): retained measurable activity | inhibition by S protein IFA, co-treatment (HCoV-NL63; HCoV-NL63/LLC-MK2, 20 µM, adsorption only (−1 h to 0 h), readout 48 h, vs virus-only DMSO control): little effect | inhibition by S protein IFA, pre-treatment (HCoV-NL63; HCoV-NL63/LLC-MK2, 20 µM, pre-exposure with washout, readout 48 h): retained measurable activity | inhibition by S protein IFA, full regimen (HCoV-NL63; HCoV-NL63/LLC-MK2, 20 µM, −24 h to 48 h, readout 48 h): greatest inhibition | time-of-addition effect-size order of regimens (HCoV-NL63; full, pre, co, post regimens, across readouts): full > pre ≈ post > co; also recorded: full » pre ≈ post » co | cytotoxicity in mock-infected cells [1]: without cytotoxicity; also recorded: no overt cytotoxicity | EC50 (PEDV): 1590 nM | CPE reduction across TOA regimens (HCoV-OC43): greatest antiviral effect with full exposure, intermediate activity with pre- and post-treatment, and little or no effect with co-treatment
